According to ChEMBL document CHEMBL1629566, “Development and qualification of a pharmacodynamic model for the pronounced inoculum effect of ceftazidime against Pseudomonas aeruginosa” (2009):
In brackets after ≈: the same amount, converted by molar mass.

Columns and labels:
Assay type in all cases: functional
Pseudomonas aeruginosa [1] = assay: Antimicrobial activity against Pseudomonas aeruginosa PAO1 infected in in vitro pharmacodynamic model assessed as bacterial killing at 4 mg/L after 24 hrs using 10^6 CFU/ml inoculum by time kill study
Pseudomonas aeruginosa [2] = assay: Antimicrobial activity against Pseudomonas aeruginosa PAO1 infected in in vitro pharmacodynamic model assessed as bacterial killing up to 64 mg/L after 48 hrs using 10^7 CFU/ml inoculum by time kill study
Pseudomonas aeruginosa [3] = assay: Antimicrobial activity against Pseudomonas aeruginosa PAO1 infected in in vitro pharmacodynamic model assessed as bacterial killing at 0 to 128 mg/L using 10^8 CFU/ml inoculum by time kill study
Pseudomonas aeruginosa [4] = assay: Antimicrobial activity against Pseudomonas aeruginosa PAO1 infected in in vitro pharmacodynamic model assessed as bacterial killing at 4 mg/L after 8 hrs using 10^6 CFU/ml inoculum by time kill study
Pseudomonas aeruginosa [5] = assay: Antimicrobial activity against Pseudomonas aeruginosa PAO1

**Q.** Which log10cfu (Pseudomonas aeruginosa [1]) does the source give for CC(C)(O/N=C(\C(=O)N[C@@H]1C(=O)N2C(C(=O)[O-])=C(C[n+]3ccccc3)CS[C@H]12)c1csc(N)n1)C(=O)O [CEFTAZIDIME] here?
**A.** 3

**Q.** And the log10cfu (Pseudomonas aeruginosa [2])?
**A.** 1.6

**Q.** And the log10cfu (Pseudomonas aeruginosa [3])?
**A.** <0.3

**Q.** What about the log10cfu (Pseudomonas aeruginosa [4]) of the same compound?
**A.** 3

**Q.** And the MIC (Pseudomonas aeruginosa [5])?
**A.** 2 µg/mL (≈ 3.66 µM)
